# Results reported in patent US4234581A, “Thieno[2,3-d]oxazines” (Mead Johnson & Company, priority 1979, dated 1980).
# Counter-ions that a name gives are not always drawn. Like-named read-outs stand apart in the source and are kept apart here.
# Key:
# [1] = system: passive cutaneous anaphylaxis reaction (PCA) in the rat; assay: passive cutaneous anaphylaxis reaction (PCA) in the rat; assay type: in vivo
# Protocol: Activity of test compounds in the passive cutaneous anaphylaxis reaction (PCA) in the rat has been shown in the prior art to correlate with the utility of active compounds in the treatment of immediate hypersensitivity conditions such as asthma. Rat reaginic antiserum is prepared substantially according to the method of Mota, Immunology 7, 681-699 (1964) employing male Sprague-Dawley (Carworth Farms) or Wistar (Harlan) rats weighing 100-175 g. which are injected intramuscularly with a solution of egg albumin in saline at a dose of 10 mg. per kg. and intraperitoneally with 2×10^10 Bordetella pertussis organisms. Twelve days after injection, the serum is collected and the antibody titer is determined. The sera are pooled which contain sufficient antibody to cause a 10 mm. spot in the dorsal skin of the rat in the PCA test after dilution 10 fold. The highest dilution of antiserum capable of inducing PCA in the rat 48 to 72 hrs. after injection is normally in the range of 50-80. The selected reaginic anti-sera are stored frozen until use.
# For carrying out the test, groups of 5 to 10 male Sprague-Dawley (Carworth Farms) rats, each rat weighing 100-150 g., are used. Forty-eight hours prior to the test, the animals are passively sensitized by intradermal injection of 0.1 ml. of diluted antiserum at various locations on the shaved skin of the back. A dilution of antiserum is used so that a spot following challenge of 20-25 mm. in diameter is obtained. […] A latent period of 48 hrs. is usually allowed before the animals are challenged. According to the usual screening procedure, 15 min. prior to challenge the test drug is administered either by intraperitoneal injection, intravenous injection, or orally by gavage. Challenge involves an intravenous injection of a dose of 25 mg./kg. of egg albumin and 25 mg./kg. of Evans' blue dye in saline. The dye serves simply as a marker. The response of the antigen challenge in the localities on the skin which have been previously sensitized results in increased capillary permeability at the sensitized site and leakage of the blue dye into the area surrounding the sensitized site. The PCA response is scored by measuring the mean spot diameter on the excised and reversed skin 20-30 min. after challange. In each experiment a group of control animals receiving no drug is employed. The percent inhibition of the PCA is calculated by determining the mean diameters of the spots in the control and treated animals and computing the difference between the squares of the mean diameters of the control animals and the treated animals and expressing this difference as a percentage of the square of the mean diameter of the control animals. Results are expressed as percent inhibition.
# Rats may be injected intradermally with 0.1 ml. of a solution containing 1 mg./ml. histamine 10 min. prior to sacrificing. This permits a determination of whether the test compound is exerting an antihistaminic effect on the end organ rather than interfering with mediator release from the mast cells in inhibiting the PCA.
# Various doses of test compound in parallel experiments are employed when a dose response curve is to be constructed for quantitative comparison of potencies among active compounds. The ID50, the dose at which 50% inhibition of the PCA occurs, is determined by interpolation. In other modifications, various time intervals are allowed between drug treatment and challenge to ascertain the duration of drug effect.
# [2] = system: immunologically induced bronchoconstriction; assay: allergic respiratory model in the rat (immunologically induced bronchoconstriction); assay type: in vivo; conditions: for ED50: 0.25 h, intraduodenal 15 min. prior to egg albumin challenge, half maximal response (ID1/2 max.), table titled Oral
# [3] = system: passively sensitized rat peritoneal mast cells; assay: antagonism of antigen-induced histamine release from passively sensitized rat peritoneal mast cells; assay type: cell-based; conditions: in vitro; for IC50: Mast cell, egg albumin antigen challenge
# Excerpt: The method employed is similar to that described by Kusner, et al., Journal of Pharmacology and Experimental Therapeutics 184, 41-46 (1973). The test involves isolation of mast cells from the rat by lavage of the peritoneal cavity and isolation of the cellular material from the lavage fluid. The cells are sensitized by shaking in antiserum from rats sensitized as described above with respect to the passive cutaneous anaphylaxis test. The sensitized cells are then exposed to the egg albumin antigen and the release of histamine from the cells is measured by an automated fluorometric method. The inhibition of histamine release by the presence of a test compound during challenge of the sensitized cells is a measure of the activity of the test compound. Dose response curves are prepared employing various concentrations of the test substance and the concentration which inhibits histamine release by 50% (IC50) is determined by interpolation.
# [4] = Acute oral toxicity in the rat; conditions: in vivo
# Excerpt: | *Acute oral toxicity in the rat.
# [5] = 0.25 h, oral, rat, drug 15 min. prior to challenge, 50% inhibition of PCA, read-out: PCA Response (ID50, mg./kg.)
# [6] = range for Procedures 2, 3 and 36, read-out: IC50, inhibition of histamine release
# [7] = Rat2, oral, rat, 2 hr. interval between drug dosage and challenge, read-out: PCA Response (ID50, mg./kg.)
smiles,measurement,setting,value
"Cc1c(CC(C)C)sc2nc(C(=O)O)[nH]c(=O)c12 [Procedure 97, 3,4-Dihydro-5-methyl-6-(2-methylpropyl)-4-oxothieno[2,3-d]pyrimidine-2-carboxylic Acid Dipotassium Salt]",ED50,"[1]; Rattus norvegicus, intravenous, rats, read-out: ID50 in the PCA test, intravenous",0.14 mg/kg
same,ED50,"[1]; Rattus norvegicus, oral, rats, read-out: ID50 in the PCA test, oral",2.7 mg/kg
"CCc1cc2c(=O)[nH]c(C(=O)O)nc2s1 [Procedure 44, 6-ETHYL-3,4-DIHYDRO-4-OXOTHIENO[2,3-d]PYRIMIDINE-2-ARBOXYLIC ACID DISODIUM SALT DIHYDRATE]",ED50,[1]; [5],13 mg/kg
"O=C(O)c1cc(=O)c2c(OCC(O)COc3cccc4oc(C(=O)O)cc(=O)c34)cccc2o1 [Cromolyn sodium, reference compound]",ED50,"[1]; intravenous, simultaneously with the antigen, rat, read-out: ID50 in the rat PCA test",~1 mg/kg
same,activity on oral administration in PCA test,"[1]; oral, rat",inactive
same,activity on oral administration in allergic respiratory test,[2]; oral,inactive
same,IC50,"[3]; read-out: IC50, inhibition of histamine release",1000 nM
"CCCCCCc1sc2nc(C(=O)O)[nH]c(=O)c2c1C [Procedure 36, 6-HEXYL-3,4-DIHYDRO-5-METHYL-4-OXOTHIENO[2,3-d]PYRIMIDINE-2-CARBOXYLIC ACID DISODIUM SALT HYDRATE]",ED50,[1]; [5],15 mg/kg
same,IC50,[3]; [6],300 to 800 nM
same,potency in histamine release test relative to cromolyn sodium,[3],substantially more potent than cromolyn sodium
"CCOC(=O)c1nc2sc(CC)cc2c(=O)[nH]1 [Procedure 29, ETHYL 6-ETHYL-3,4-DIHYDRO-4-OXOTHIENO[2,3-d]PYRIMIDINE-2-CARBOXYLATE]",ED50,[1]; [5],3.1 mg/kg
same,ED50,[2],1 mg/kg
same,LD50,[4],1600 to 5000 mg/kg
"Cc1c(CC(C)C)sc2nc(C(=O)O)[nH]c(=O)c12 [Procedure 43, 3,4-DIHYDRO-5-METHYL-6-(2-METHYLPROPYL)-4-OXOTHIENO[2,3-d]PYRIMIDINE-2-CARBOXYLIC ACID DISODUM SALT SESQUIHYDRATE]",ED50,[1]; [5],6.7 mg/kg
"CCOC(=O)c1nc2sc(CC(C)C)c(C)c2c(=O)[nH]1 [Procedure 28, ETHYL 3,4-DIHYDRO-5-METHYL-6-(2-METHYLPROPYL)-4-OXOTHIENO[2,3-d]PYRIMIDINE-2-CARBOXYLATE]",ED50,[1]; [5],< 5 mg/kg
"CCOC(=O)c1nc2sc3c(c2c(=O)[nH]1)CCCC3 [Procedure 2, ETHYL 3,4,5,6,7,8-HEXAHYDRO-4-OXOBENZOTHIENO[2,3-d]PYRIMIDINE-2-CARBOXYLATE]",ED50,[1]; [5],15.4 mg/kg
same,ED50,[2],3.8 mg/kg
same,LD50,[4],> 3160 mg/kg
same,IC50,[3]; [6],300 to 800 nM
same,potency in histamine release test relative to cromolyn sodium,[3],substantially more potent than cromolyn sodium
"CCOC(=O)c1nc2sc(CC)c(C)c2c(=O)[nH]1 [Procedure 27, ETHYL 6-ETHYL-3,4-DIHYDRO-5-METHYL-4-OXOTHIENO[2,3-d]PYRIMIDINE-2-CARBOXYLATE]",ED50,[1]; [5],11.4 mg/kg
"CCOC(=O)C(=O)Nc1sccc1C(N)=O [Procedure 83, Ethyl N-[3-(Aminocarbonyl)thien-2-yl]oxamate]",ED50,"[1]; oral, rat, read-out: oral ED50 in the rat PCA test for antiallergic activity",4.5 mg/kg
"O=C(O)c1nc2sc3c(c2c(=O)[nH]1)CCCC3 [Procedure 3, 3,4,5,6,7,8-HEXAHYDRO-4-OXOBENZOTHIENO[2,3-d]-PYRIMIDINE-2-CARBOXYLIC ACID DISODIUM SALT DIHYDRATE]",IC50,[3]; [6],300 to 800 nM
same,potency in histamine release test relative to cromolyn sodium,[3],substantially more potent than cromolyn sodium
"Cc1c(CC(C)C)sc2nc(CO)[nH]c(=O)c12 [Procedure 53, 2-(HYDROXYMETHYL)-5-METHYL-6-(2-METHYLPROPYL)THIENO[2,3-d]PYRIMIDINE-4-(3H)-ONE]",ED50,[1]; [7],28 mg/kg
"O=c1[nH]c(CO)nc2sc3c(c12)CCCC3 [Procedure 55, 5,6,7,8-TETRAHYDRO-2-(HYDROXYMETHYL)BENZOTHIENO[2,3-d]-4(3H)-PYRIMIDINONE]",ED50,[1]; [7],34 mg/kg
"CCCCCCc1sc2nc(CO)[nH]c(=O)c2c1C [Procedure 56, 6-HEXYL-2-(HYDROXYMETHYL)-5-METHYLTHIENO[2,3-d]PYRIMIDINE-4-(3H)-ONE]",ED50,[1]; [5],28 mg/kg
